The source of these data is publication PMC5477519, “Leukocyte integrin Mac-1 regulates thrombosis via interaction with platelet GPIbα” (Nature Communications, 2017).

pKd: −log10 of the molar value.

The target in assay [1] is T1, αMI-domain double mutant of integrin Mac-1 (αMβ2, CD11b/CD18) (Homo sapiens, UniProt P11215, R232A/T229A).
T1 construct: gene ITGAM; αMI-domain, human mutant
Briefly: SPR (Biacore […], ~[…] RU, steady-state affinity); low-level binding, no consistent interaction at ~[…] RU. On the technique in general: Surface plasmon resonance follows binding to a sensor surface in real time, without labels.

Assay [2] has as its target T2, αMI-domain of integrin Mac-1 (αMβ2, CD11b/CD18) (Homo sapiens, UniProt P11215).
T2 construct: gene ITGAM; αMI-domain, human WT
Briefly: SPR (Biacore […], CM5 chip, steady-state affinity); supported by inhibition of GPIbα binding to αMI-domain (IC50 […]).

T2 sequence (P11215 150-328 limits assumed): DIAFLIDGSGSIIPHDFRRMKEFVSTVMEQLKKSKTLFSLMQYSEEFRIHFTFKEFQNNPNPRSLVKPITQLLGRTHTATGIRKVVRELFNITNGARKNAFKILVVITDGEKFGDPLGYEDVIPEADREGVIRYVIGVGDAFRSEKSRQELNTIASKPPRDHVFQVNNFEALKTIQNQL
T1 sequence (P11215 150-328 T229A/R232A limits assumed): as the sequence (P11215 150-328 limits assumed) above, with T80A, R83A counted along it

As usually defined, the pKd is the negative decadic logarithm of the Kd, by convention in mol/L. Consider `N[C@H]1C(O)O[C@H](CO)[C@@H](O)[C@@H]1O` (some centres unmarked) [glucosamine], for which the pKd in assay [1] was about 3.61; in assay [2], about 4.00.
